This note sets out measurements from patent publication US6358984B1, “2,4-dioxopyrrolidine and 2,4-dioxotetrahydrofuran derivatives and medicines containing the same as the active ingredient” (Lead Chemical Co., Ltd., priority 1996, dated 2002).

For one series, the system named is aortae of guinea pigs. In words: Inhibition of vascular contraction caused by angiotensin II using pieces of the aortae of guinea pigs. Type of series: cell-based. Particulars: guinea pig chest aorta, contraction induced by angiotensin II, read-out: Vascular contraction inhibition effect IC50. The protocol: Male Hartly guinea pigs (350 to 400 g) were contused on the head and sacrificed by allowing their blood to discharge from the arteria carotis communis. Immediately after death, the chest aorta was removed. A spiral sample of width 2 to 3 mm and length 20 to 25 mm was cut from the aorta, and was suspended in 4.5 ml of Krebs-Henseleit (K-H) solution (120 mM NaCl, 4.7 mM KCl, […], 1.2 mM KH2PO4, 2.5 mM CaCl2, 25 mM NaHCO3, and 10 mM glucose) in a Magnus vessel. The K-H solution in the Magnus vessel was maintained at 37° C., and a mixture gas of 95% O2 and 5% CO2 was continuously bubbled through the solution. First, 1 g of initial tension was applied to the sample, which was then left to stand rest for about 30 minutes, and 45 μl of 4M KCl solution was added to the solution to induce contraction. After contraction had stabilized, a washing operation was performed to replace the K-H solution. Then, after the sample was left to stand for 30 minutes, 45 μl of solvent DMSO was added to incubate the sample for 15 minutes, and 45 μl of angiotensin II solution (3×10^−8M) was added to induce contraction. This operation was repeated three times and 100% contraction was used as the average. Subsequently, the sample was stabilized by washing. Then, a 45 μl sample of each test compound prepared for each concentration (3×10^−5M to 10^−7M) using DMSO as a solvent was used to observe the inhibition effect of angiotensin II on vascular contraction by performing the same operation as described above. The contraction reaction was recorded on a recorder (RTA-1100, Japan Photoelectronics) via an equi-scale pressure transducer (TB-651T, Japan Photoelectronics). The angiotensin II inhibition effects of the test compounds were evaluated using the IC50 value.

The test system of series [1] is hypertension caused by angiotensin II. Briefly: Inhibition effect in the hypertension caused by angiotensin II using rats. Particulars: i. v., male SD rats, angiotensin II 100 ng/kg; for inhibition in vivo at 1 mg/kg: Rattus norvegicus, iv. Type of series: in vivo, rat. The protocol:
Male SD rats (age; 11 weeks; 310 to 330 g) Were used, and indwelling cannula were placed in the femoral aorta and the vena cava, under anesthesia with inactin. The arterial cannula was connected to a pressure transducer to record the blood pressure via a carrier amplifier (AP-601G Japan Photoelectronics) using a polygraph system (RM-6000 Japan Photoelectronics). Prior to tests using the test compounds, 100 ng/kg-equivalent angiotensin II (50 μl of serum solution from the rat) was administered using a regular-pulse cannula to check the hypertensive action. Then, 30 minutes later, a 1 mg/kg-equivalent test compound (50 μl of serum solution from the rat) was administered using the regular-pulse cannula, and similar administration of angiotensin II was performed 5 and 60 minutes later to check the corresponding hypertensive action. The hypertensive effect resulting from the administration of only angiotensin II was taken as a reference value of 100% to determine the antihypertensive rates of the test compounds.

The target in another series is T1, angiotensin II receptor (Oryctolagus cuniculus, UniProt P34976).
T1 construct: fraction of angiotensin II receptor membrane ([…]) prepared from rabbit adrenal gland; from tissue; host or cells: rabbit adrenal gland membrane fraction
T1 sequence (P34976 1-359): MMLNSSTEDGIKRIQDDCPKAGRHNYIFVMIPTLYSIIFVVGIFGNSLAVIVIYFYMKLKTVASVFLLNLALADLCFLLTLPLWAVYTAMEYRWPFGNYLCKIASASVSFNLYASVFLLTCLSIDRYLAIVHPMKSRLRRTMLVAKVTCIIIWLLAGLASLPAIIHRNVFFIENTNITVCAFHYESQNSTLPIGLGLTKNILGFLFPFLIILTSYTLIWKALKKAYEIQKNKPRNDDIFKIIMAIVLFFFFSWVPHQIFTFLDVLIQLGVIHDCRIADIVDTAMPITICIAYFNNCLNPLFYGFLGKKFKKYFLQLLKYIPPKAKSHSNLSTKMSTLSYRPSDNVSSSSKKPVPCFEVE
Briefly: Binding inhibition of 3H labeled angiotensin II to angiotensin II receptor membrane fraction. The arrangement: species or system rabbit. Particulars: rabbit adrenal gland membrane, 3H labeled angiotensin II 10^-9M; read-out: Receptor binding inhibition effect IC50. The protocol:
The method of Cox et. al (Biochemical Pharmacology 33, 4057-4064 (1984) was modified to conduct angiotensin II receptor binding inhibition experiments. The present compounds (10^−5M to 10^−9M) and ^3H labeled angiotensin II (10^−9M) were added to a fraction of angiotensin II receptor membrane ([…]) prepared from rabbit adrenal gland and were allowed to react in a 20 mM Tris HCl buffer (pH: 7.0) containing 120 mM NaCl, 5 mM EDTA, 0.1 mM PMSF, and 0.2% BSA at 30° C. for 20 minutes so that the final volume was 540 μl. Then, the reaction mixture was quickly passed through a filter (whatman GF/B), and the filter was then rinsed three times in 4 ml of the buffer cooled in ice. Then, the radioactivity of receptor binding ^3H labeled angiotensin II captured on the filter was measured using a liquid scintillation counter. The angiotensin II receptor binding inhibition activity of the present compounds was evaluated based on the concentration (IC 50) required to replace 50% of the total amount of specifically binding ^3H labeled angiotensin II.

Usually pIC50 stands for the IC50 on a negative log10 scale, so that one unit is a factor of ten. A word on the melting point: it is the temperature, or range, at which the solid turns liquid.

pIC50: −log10 of the molar value. Where two headings read alike, the source gives them in different places.

On to “5-Butyl-3-(3-fluorophenyl)-1-[2′-[(4-hydroxy-2(5H)-furanone-5(Z)-ylidene)methyl]biphenyl-4-yl]methyl-1H-1,2,4-triazole [Compound 2h]”, for which, in the series with aortae of guinea pigs, the pIC50 is 3.66. In addition, the “Inhibition effect in the hypertension by angiotensin II, 5 minutes after administration” value in series [1] (1 mg/kg, 5 minutes after administration) was “+ (30% > + ≧ 10%)”. In addition, the “Inhibition effect in the hypertension by angiotensin II, 60 minutes after administration” value in series [1] (1 mg/kg, 60 minutes after administration) is “− (10% > −)”.
`CCCc1nc(CCC)n(Cc2ccc(-c3ccccc3/C=C3\NC(=O)CC3=O)cc2)n1` [Compound 1a, 3,5-Dipropyl-1-[2′-[(2,4-dioxopyrrolidine-5(Z)-ylidene)methyl]biphenyl-4-yl]methyl-1H-1,2,4-triazole] gave a melting point of 179 to 180 °C. Also, the pIC50 on angiotensin II receptor is 6.66. Further, the negative logarithm of the IC50 (pIC50) with aortae of guinea pigs (Cavia porcellus) is < 3.52. Moreover, the inhibition in vivo at 1 mg/kg in series [1] (5 min, 5 minutes after administration, read-out: Inhibition effect in the hypertension by angiotensin II, 5 minutes after administration) was 30 to 70%. Besides, the inhibition in vivo at 1 mg/kg in series [1] (1 h, 60 minutes after administration, read-out: Inhibition effect in the hypertension by angiotensin II, 60 minutes after administration) was < 10%.
Take `CC(C)c1nc(C(C)C)n(Cc2ccc(-c3ccccc3/C=C3\NC(=O)CC3=O)cc2)n1` [Compound 1b, 3,5-Diisopropyl-1-[2′-[(2,4-dioxopyrrolidine-5-(Z)-ylidene)methyl]biphenyl-4-yl]methyl-1H-1,2,4-triazole]: the melting point was in the range of 141 to 142 °C. Besides, the pIC50 at angiotensin II receptor was < 5.15. The pIC50 with aortae of guinea pigs (Cavia porcellus) is < 3.52.
As for `CCCCc1nc(C2CC2)nn1Cc1ccc(-c2ccccc2/C=C2\NC(=O)CC2=O)cc1` [Compound 1c, 5-Butyl-3-cyclopropyl-1-[2′-[(2,4-dioxopyrrolidine-5(Z)-ylidene)methyl]biphenyl-4-yl]methyl-1H-1,2,4-triazole], the melting point was 166 to 168 °C. Further, the pIC50 at angiotensin II receptor was 5.70. The pIC50 with aortae of guinea pigs (Cavia porcellus) was < 3.52.
The molecule `CCCCc1nc(-c2ccccc2)nn1Cc1ccc(-c2ccccc2/C=C2\NC(=O)CC2=O)cc1` [Compound 1e, 5-Butyl-3-phenyl-1-[2′-[(2,4-dioxopyrrolidine-5(Z)-ylidene)methyl]biphenyl-4-yl]methyl-1H-1,2,4-triazole] displayed a melting point of 180 to 181 °C. In addition, on angiotensin II receptor, the pIC50 was < 5.20. The pIC50 in the series with aortae of guinea pigs (Cavia porcellus) was < 3.52.
In the case of `CCCCc1nc(-c2ccc(F)cc2)nn1Cc1ccc(-c2ccccc2/C=C2\NC(=O)CC2=O)cc1` [Compound 1g, 5-Butyl-3-(4-fluorophenyl)-1-[2′-[(2,4-dioxopyrrolidine-5(Z)-ylidene)methyl]biphenyl-4-yl]methyl-1H-1,2,4-triazole], the melting point fell in the range of 188 to 190 °C. Also, the pIC50 at angiotensin II receptor is < 5.21. For the same molecule, the pIC50 in the series on aortae of guinea pigs (Cavia porcellus) is < 3.52.
Consider `CCCCc1nc(-c2ccccc2F)nn1Cc1ccc(-c2ccccc2/C=C2\NC(=O)CC2=O)cc1` [Compound 1h, 5-Butyl-3-(2-fluorophenyl)-1-[2′-[(2,4-dioxopyrrolidine-5(Z)-ylidene)methyl]biphenyl-4-yl]methyl-1H-1,2,4-triazole], for which the melting point fell in the range of 169 to 170 °C. Besides, on angiotensin II receptor, the pIC50 was 5.35. For the same molecule, the pIC50 in the series with aortae of guinea pigs (Cavia porcellus) is < 3.52.
`CCCCc1nc(-c2ccncc2)nn1Cc1ccc(-c2ccccc2/C=C2\NC(=O)CC2=O)cc1` [Compound 1i, 5-Butyl-3-(pyridine-4-yl)-1-[2′-[(2,4-dioxopyrrolidine-5(Z)-ylidene)methyl]biphenyl-4-yl]methyl-1H-1,2,4-triazole] had a melting point of 144 to 145 °C. The pIC50 on angiotensin II receptor is < 5.20. In the series with aortae of guinea pigs (Cavia porcellus), the pIC50 is < 3.52.
The molecule `CCCCc1nc(-c2ccco2)nn1Cc1ccc(-c2ccccc2/C=C2\NC(=O)CC2=O)cc1` [Compound 1j, 5-Butyl-3-(furan-2-yl)-1-[2′-[(2,4-dioxopyrrolidine-5(Z)-ylidene)methyl]biphenyl-4-yl]methyl-1H-1,2,4-triazole] showed a melting point of 169 to 170 °C. Further, on angiotensin II receptor, the pIC50 was 5.66. In addition, in the series with aortae of guinea pigs (Cavia porcellus), the negative-log IC50 (pIC50) is < 3.52.
For the molecule `CCCCc1nc(-c2cccs2)nn1Cc1ccc(-c2ccccc2/C=C2\NC(=O)CC2=O)cc1` [Compound 1k, 5-Butyl-3-(thiophene-2-yl)-1-[2′-[(2,4-dioxopyrrolidine-5(Z)-ylidene)methyl]biphenyl-4-yl]methyl-1H-1,2,4-triazole], the melting point lay in the range of 186 to 187 °C. Further, the pIC50 at angiotensin II receptor is 5.38. Besides, in the series on aortae of guinea pigs (Cavia porcellus), the negative logarithm of the IC50 (pIC50) is < 3.52.
For the molecule `CC(C)c1nc(C(C)C)n(Cc2ccc(-c3ccccc3/C=C3\OC(=O)C=C3O)cc2)n1` [Compound 2b, 3,5-Diisopropyl-1-[2′-[(4-hydroxy-2(5H)-furanone-5(Z)-ylidene)methyl]biphenyl-4-yl]methyl-1H-1,2,4-triazole], the melting point lay within 191 to 193 °C. Besides, the pIC50 at angiotensin II receptor is 6.03. Also, the pIC50 with aortae of guinea pigs (Cavia porcellus) is < 3.52.
With `CCCCc1nc(-c2ccc(F)cc2)nn1Cc1ccc(-c2ccccc2/C=C2\OC(=O)C=C2O)cc1` [Compound 2g, 5-Butyl-3-(4-fluorophenyl)-1-[2′-[(4-hydroxy-2(5H)-furanone-5(Z)-ylidene)methyl]biphenyl-4-yl]methyl-1H-1,2,4-triazole], the melting point was 175 to 176 °C. The negative logarithm of the IC50 (pIC50) on angiotensin II receptor was 6.16. Besides, in the series with aortae of guinea pigs (Cavia porcellus), the pIC50 was < 3.52.
Regarding `CCCCc1nc(-c2cccc(F)c2)nn1Cc1ccc(-c2ccccc2/C=C2\OC(=O)C=C2O)cc1` [Compound 2h, 5-Butyl-3-(3-fluorophenyl)-1-[2′-[(4-hydroxy-2(5H)-furanone-5(Z)-ylidene)methyl]biphenyl-4-yl]methyl-1H-1,2,4-triazole], the melting point lay in the range of 184 to 185 °C.
For `CCCCc1nnc(CCCC)n1Cc1ccc(-c2ccccc2/C=C2\NC(=O)CC2=O)cc1` [Compound 19a], the melting point was in the range of 185 to 186 °C. In addition, at angiotensin II receptor, the pIC50 was 5.10. For the same molecule, the pIC50 in the series on aortae of guinea pigs (Cavia porcellus) is < 3.52.
For the molecule `CCCCc1nnc(CCCC)n1Cc1ccc(-c2ccccc2/C=C2\OC(=O)C=C2O)cc1` [Compound 19b, 3,5-Dibutyl-1-[2′-[(4-hydroxy-2(5H)-furanone-5(Z)-ylidene)-methyl]biphenyl-4-yl]methyl-4H-1,2,4-triazole], the pIC50 at angiotensin II receptor was 6.17; in the series with aortae of guinea pigs (Cavia porcellus), < 3.52.
